The values that follow come from US10125135B2, “Chemical compounds” (AstraZeneca AB, priority 2016, dated 2018).

The structures appear in SMILES notation.

Sequence of ERα receptor in MCF-7 human ductal carcinoma breast cell line (P03372 whole entry): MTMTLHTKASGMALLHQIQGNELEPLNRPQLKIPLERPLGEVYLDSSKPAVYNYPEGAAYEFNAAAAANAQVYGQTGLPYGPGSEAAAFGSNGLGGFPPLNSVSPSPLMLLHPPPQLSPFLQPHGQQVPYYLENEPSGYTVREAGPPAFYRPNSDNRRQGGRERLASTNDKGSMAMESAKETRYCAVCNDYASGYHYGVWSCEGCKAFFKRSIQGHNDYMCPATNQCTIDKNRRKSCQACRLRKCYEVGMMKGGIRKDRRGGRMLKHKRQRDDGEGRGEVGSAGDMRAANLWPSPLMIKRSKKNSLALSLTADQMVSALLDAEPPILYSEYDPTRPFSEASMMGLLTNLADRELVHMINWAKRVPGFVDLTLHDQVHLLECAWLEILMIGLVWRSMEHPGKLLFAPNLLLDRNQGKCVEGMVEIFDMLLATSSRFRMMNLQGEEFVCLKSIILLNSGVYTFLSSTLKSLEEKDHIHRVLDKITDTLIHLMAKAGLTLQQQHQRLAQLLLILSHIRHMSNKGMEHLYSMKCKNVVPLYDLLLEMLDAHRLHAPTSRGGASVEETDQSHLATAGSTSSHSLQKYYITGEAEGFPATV

The first assay concerns the target ERα receptor in MCF-7 human ductal carcinoma breast cell line (Homo sapiens (Human), UniProt P03372). The assay can be described thus: MCF-7 ER down regulation assay (immuno-fluorescence). It counts as cell-based. Conditions: MCF-7 cells, 18-22 hours incubation; read-out: ER down regulation IC50 value. As for the experimental part: MCF-7 ER Down Regulation Assay
The ability of compounds to down-regulate Estrogen Receptor (ER) numbers was assessed in a cell based immuno-fluorescence assay using the MCF-7 human ductal carcinoma breast cell line. MCF-7 cells were revived directly from a cryovial (approx 5×10^6 cells) in Assay Medium (phenol red free Dulbecco's Modified Eagle's medium (DMEM) (Sigma D5921) containing 2mM L-Glutamine and 5% (v/v) Charcoal/Dextran treated foetal calf serum. Cells were syringed once using a sterile 18 G×1.5 inch (1.2×40 mm) broad gauge needle and cell density was measured using a Coulter Counter (Beckman). Cells were further diluted in Assay Medium to a density of 3.75×10^4 cells per mL and 40 μL per well added to transparent bottomed, black, tissue culture treated 384 well plates (Costar, No. 3712) using a Thermo Scientific Matrix WellMate or Thermo Multidrop. Following cell seeding, plates were incubated overnight at 37° C., 5% CO2 (Liconic carousel incubator). Test data was generated using the LabCyte Echo™ model 555 compound reformatter which is part of an automated workcell (Integrated Echo 2 workcell). 10 mM compound stock solutions of the test compounds were used to generate a 384 well compound dosing plate (Labcyte P-05525-CV1). […] 40 μΛ of DMSO added to wells in row P on the source plate allow for DMSO normalisation across the dose range. To dose the control wells 40 μL of DMSO was added to row O1 and 40 μL of 100 μM fulvestrant in DMSO was added to row O3 on the compound source plate. […] Compounds were dispensed onto the cell plates with a compound source plate prepared as above producing a 12 pt duplicate 3 μM to 3 pM dose range with 3 fold dilutions and one final 10 fold dilution using the Integrated Echo 2 workcell. […] Cells were fixed at room temperature for 20 mins before being washed two times with 250 μL PBS/Proclin (PBS with a Biocide preservative) using a BioTek platewasher, 40 μL of PBS/Proclin was then added to all wells and the plates stored at 4° C. The fixing method described above was carried out on the Integrated Echo 2 workcell. Immunostaining was performed using an automated AutoElisa workcell. The PBS/Proclin was aspirated from all wells and the cells permeabilised with 40 μL PBS containing 0.5% Tween™ 20 (v/v) for 1 hour at room temperature. The plates were washed three times in 250 μL of PBS/0.05% (v/v) Tween 20 with Proclin (PBST with a Biocide preservative) and then 20 μL of ERα (SP1) Rabbit monoclonal antibody (Thermofisher) 1:1000 in PBS/Tween™/3% (w/v) Bovine Serum Albumin was added. The plates were incubated overnight at 4° C. (Liconic carousel incubator) and then washed three times in 250 μL of PBS/0.05% (v/v) Tween™ 20 with Proclin (PBST). The plates were then incubated with 20 μL/well of a goat anti-rabbit IgG AlexaFluor 594 or goat anti-rabbit AlexaFluor 488 antibody (Molecular Probes) with Hoechst at 1:5000 in PBS/Tween™/3% (w/v) Bovine Serum Albumin for lhour at room temperature. The plates were then washed three times in 250 μL of PBS/0.05% (v/v) Tween™ 20 with Proclin (PBST with a Biocide preservative). 20 μL of PBS was added to each well and the plates covered with a black plate seal and stored at 4° C. before being read. Plates were read using a Cellomics Arrayscan reading the 594 nm (24 hr time point) or 488 nm (5 hr timepoint) fluorescence to measure the ERα receptor level in each well. The mean total intensity was normalized for cell number giving the total intensity per cell.
In the case of `COc1cc(OCCN2CC(CF)C2)ccc1[C@@H]1c2ccc3[nH]ncc3c2C[C@@H](C)N1CC(F)(F)CO` [Example 14, 2,2-difluoro-3-((6S,8R)-6-(4-(2-(3-(fluoromethyl)azetidin-1-yl)ethoxy)-2-methoxyphenyl)-8-methyl-3,6,8,9-tetrahydro-7H-pyrazolo[4,3-f]isoquinolin-7-yl)propan-1-ol], the DC50 was 150 pM.

In the case of `CC(C)(F)CN1C(c2c(F)cc(OCCN3CC(CF)C3)cc2F)c2ccc3[nH]ncc3c2CC1(C)C` (stereo not drawn) [Example 37, 6-(2,6-difluoro-4-(2-(3-(fluoromethyl)azetidin-1-yl)ethoxy)phenyl)-7-(2-fluoro-2-methylpropyl)-8,8-dimethyl-6,7,8,9-tetrahydro-3H-pyrazolo[4,3-f]isoquinoline], the DC50 turned out to be 160 pM.

For the molecule `CC(C)CN1[C@H](c2c(F)cc(OCCN3CC(CF)C3)cc2F)c2ccc3[nH]nc(F)c3c2C[C@H]1C` [Example 44, (6S,8R)-6-(2,6-difluoro-4-(2-(3-(fluoromethyl)azetidin-1-yl)ethoxy)phenyl)-1-fluoro-7-isobutyl-8-methyl-6,7,8,9-tetrahydro-3H-pyrazolo[4,3-f]isoquinoline], the DC50 was 420 pM.

For `COc1cc(OCCN2CC(CF)C2)ccc1[C@@H]1c2ccc3[nH]ncc3c2C[C@@H](C)N1CC(F)(F)CF` [Example 22, (6S,8R)-6-(4-(2-(3-(fluoromethyl)azetidin-1-yl)ethoxy)-2-methoxyphenyl)-8-methyl-7-(2,2,3-trifluoropropyl)-6,7,8,9-tetrahydro-3H-pyrazolo[4,3-f]isoquinoline], the DC50 was determined as 150 pM.

On to `CC1(C)Cc2c(ccc3[nH]ncc23)C(c2ccc(OCCN3CC(CF)C3)cn2)N1CC(F)F` (stereo not drawn) [Example 45, 7-(2,2-difluoroethyl)-6-(5-(2-(3-(fluoromethyl)azetidin-1-yl)ethoxy)pyridin-2-yl)-8,8-dimethyl-6,7,8,9-tetrahydro-3H-pyrazolo[4,3-f]isoquinoline], for which the DC50 was 3100 pM.

For the molecule `COc1cc(OCCN2CC(CF)C2)cc(F)c1[C@@H]1c2ccc3[nH]ncc3c2C[C@@H](C)N1CC(F)(F)CO` [Example 26, 2,2-difluoro-3-((6S,8R)-6-(2-fluoro-4-(2-(3-(fluoromethyl)azetidin-1-yl)ethoxy)-6-methoxyphenyl)-8-methyl-8,9-dihydro-3H-pyrazolo[4,3-f]isoquinolin-7(6H)-yl)propan-1-ol], the DC50 amounted to 130 pM.

On to `C[C@@H]1Cc2c(ccc3[nH]ncc23)[C@@H](c2ccc(OCCN3CC(CF)C3)cc2C#N)N1CC1(F)CC1` [Example 39, 2-((6S,8R)-7-((1-fluorocyclopropyl)methyl)-8-methyl-6,7,8,9-tetrahydro-3H-pyrazolo[4,3-f]isoquinolin-6-yl)-5-(2-(3-(fluoromethyl)azetidin-1-yl)ethoxy)benzonitrile], for which the DC50 was determined as 170 pM.

As to `COc1cc(OCCN2CC(CF)C2)cc(F)c1[C@@H]1c2ccc3[nH]ncc3c2C[C@@H](C)N1CC(F)(F)CF` [Example 27, (6S,8R)-6-(2-fluoro-4-(2-(3-(fluoromethyl)azetidin-1-yl)ethoxy)-6-methoxyphenyl)-8-methyl-7-(2,2,3-trifluoropropyl)-6,7,8,9-tetrahydro-3H-pyrazolo[4,3-f]isoquinoline], the DC50 turned out to be 59 pM.

As to `COc1cc(OCCN2CC(CF)C2)ccc1[C@@H]1c2ccc3[nH]ncc3c2C[C@@H](C)N1CC(C)(F)F` [Example 11, (6S,8R)-7-(2,2-difluoropropyl)-6-(4-(2-(3-(fluoromethyl)azetidin-1-yl)ethoxy)-2-methoxyphenyl)-8-methyl-6,7,8,9-tetrahydro-3H-pyrazolo[4,3-f]isoquinoline], the DC50 is 36 pM.

For the molecule `COc1cc(OCCN2CC(CF)C2)ccc1[C@@H]1c2ccc3[nH]ncc3c2C[C@@H](C)N1CC(F)(F)F` [Example 12, (6S,8R)-6-(4-(2-(3-(fluoromethyl)azetidin-1-yl)ethoxy)-2-methoxyphenyl)-8-methyl-7-(2,2,2-trifluoroethyl)-6,7,8,9-tetrahydro-3H-pyrazolo[4,3-f]isoquinoline], the DC50 turned out to be 51 pM.

As to `COc1cc(OCCN2CC(C)C2)ccc1[C@@H]1c2ccc3[nH]ncc3c2C[C@@H](C)N1CC(C)(C)F` [Example 23, (6S,8R)-7-(2-fluoro-2-methylpropyl)-6-(2-methoxy-4-(2-(3-methylazetidin-1-yl)ethoxy)phenyl)-8-methyl-6,7,8,9-tetrahydro-3H-pyrazolo[4,3-f]isoquinoline], the DC50 turned out to be 240 pM.

On to `COc1cc(OCCN2CC(CF)C2)ccc1[C@@H]1c2ccc3[nH]ncc3c2C[C@@H](C)N1CC(C)(F)CF` (single isomer, unassigned) [Example 20], for which the DC50 stood at 130 pM.

Regarding `COc1cc(OCCN2CC(CF)C2)ccc1[C@@H]1c2ccc3[nH]ncc3c2C[C@@H](C)N1CC(C)(F)CF` (single isomer, unassigned) [Example 21], the DC50 is 130 pM.

Turning to `COc1nc(OCCN2CC(CF)C2)ccc1[C@@H]1c2ccc3[nH]ncc3c2C[C@@H](C)N1CC1(F)CC1` [Example 46, (6S,8R)-7-((1-fluorocyclopropyl)methyl)-6-(6-(2-(3-(fluoromethyl)azetidin-1-yl)ethoxy)-2-methoxypyridin-3-yl)-8-methyl-6,7,8,9-tetrahydro-3H-pyrazolo[4,3-f]isoquinoline], the DC50 stood at 140 pM.

As for `CC(C)CN1C(c2c(F)cc(OCCN3CC(CF)C3)cc2F)c2ccc3[nH]ncc3c2CC1(C)C` (stereo not drawn) [Example 36, 6-(2,6-difluoro-4-(2-(3-(fluoromethyl)azetidin-1-yl)ethoxy)phenyl)-7-isobutyl-8,8-dimethyl-6,7,8,9-tetrahydro-3H-pyrazolo[4,3-f]isoquinoline], the DC50 amounted to 250 pM.

As for `COc1cc(OCCN2CC(CF)C2)ncc1[C@@H]1c2ccc3[nH]ncc3c2C[C@@H](C)N1CC1(F)CC1` [Example 42, (6S,8R)-7-((1-fluorocyclopropyl)methyl)-6-(6-(2-(3-(fluoromethyl)azetidin-1-yl)ethoxy)-4-methoxypyridin-3-yl)-8-methyl-6,7,8,9-tetrahydro-3H-pyrazolo[4,3-f]isoquinoline], the DC50 turned out to be 590 pM.

For `COc1cc(OCCN2CC(CF)C2)ccc1[C@@H]1c2ccc3[nH]ncc3c2C[C@@H](C)N1CC1(F)COC1` [Example 13, (6S,8R)-6-(4-(2-(3-(fluoromethyl)azetidin-1-yl)ethoxy)-2-methoxyphenyl)-7-((3-fluorooxetan-3-yl)methyl)-8-methyl-6,7,8,9-tetrahydro-3H-pyrazolo[4,3-f]isoquinoline], the DC50 worked out at 230 pM.

As for `C[C@@H]1Cc2c(ccc3[nH]ncc23)[C@@H](c2c(F)cc(OCCN3CC(CF)C3)cc2F)N1CC(F)CF` (single isomer, unassigned) [Example 35], the DC50 came to 260 pM.

`C[C@@H]1Cc2c(ccc3[nH]nc(F)c23)[C@@H](c2c(F)cc(OCCN3CC(CF)C3)cc2F)N1CC1(F)COC1` [Example 43, (6S,8R)-6-(2,6-difluoro-4-(2-(3-(fluoromethyl)azetidin-1-yl)ethoxy)phenyl)-1-fluoro-7-((3-fluorooxetan-3-yl)methyl)-8-methyl-6,7,8,9-tetrahydro-3H-pyrazolo[4,3-f]isoquinoline]: the DC50 turned out to be 590 pM.

The assay is the same for the next values; noted with them: MCF-7 cells; >90% unless otherwise stated.
Take `COc1cc(OCCN2CC(C)C2)ccc1[C@@H]1c2ccc3[nH]ncc3c2C[C@@H](C)N1CC(C)(C)F` [Example 23, (6S,8R)-7-(2-fluoro-2-methylpropyl)-6-(2-methoxy-4-(2-(3-methylazetidin-1-yl)ethoxy)phenyl)-8-methyl-6,7,8,9-tetrahydro-3H-pyrazolo[4,3-f]isoquinoline]: the “% downregulation (in brackets) in ER down regulation assay” value is given as 67%.

As to `COc1cc(OCCN2CC(OC)C2)ccc1[C@@H]1c2ccc3[nH]ncc3c2C[C@@H](C)N1CC(C)(C)F` [Example 24, (6S,8R)-7-(2-fluoro-2-methylpropyl)-6-(2-methoxy-4-(2-(3-methoxyazetidin-1-yl)ethoxy)phenyl)-8-methyl-6,7,8,9-tetrahydro-3H-pyrazolo[4,3-f]isoquinoline], the “% downregulation (in brackets) in ER down regulation assay” value is reported as under 50%.
